Structures can show the parent of a compound that is named as a salt.
Legend:
[1] = target: T1, proMMP9(20-445;ΔFnII) (SEQ ID NO:6) (Homo sapiens, UniProt P14780, DEL216-390); assay: ThermoFluor binding assay with proMMP9(20-445;ΔFnII)
T1 construct: start methionine (N); made in house; host or cells: E. coli BL21(DE3) RIL
T1 sequence (P14780 with tags, fused parts or gaps DEL216-390): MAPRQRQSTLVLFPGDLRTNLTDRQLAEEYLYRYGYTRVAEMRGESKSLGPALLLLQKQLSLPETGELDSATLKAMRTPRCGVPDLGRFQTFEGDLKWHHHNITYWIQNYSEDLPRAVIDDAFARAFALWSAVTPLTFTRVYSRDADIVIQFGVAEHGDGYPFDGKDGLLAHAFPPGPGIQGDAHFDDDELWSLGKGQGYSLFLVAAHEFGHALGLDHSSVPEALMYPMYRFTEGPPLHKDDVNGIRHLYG
Method: (§1) The ThermoFluor® (TF) assay is a 384-well plate-based binding assay that measures thermal stability of proteins (Biomol Screen 2001, 6, 429-40; Biochemistry 2005, 44, 5258-66). The experiments were carried out using instruments available from Johnson & Johnson Pharmaceutical Research & Development, LLC. TF dye used in all experiments was […] (1,8-ANS) (Invitrogen: A-47).
(§2) Compounds were arranged in a pre-dispensed plate (Greiner Bio-one: 781280), wherein compounds were serially diluted in 100% DMSO across 11 columns within a series. Columns 12 and 24 were used as DMSO reference and contained no compound. For multiple compound concentration-response experiments, the compound aliquots ([…]) were robotically predispensed directly into black 384-well polypropylene PCR microplates (Abgene: TF-0384/k) using a Cartesian Hummingbird liquid handler (DigiLab, Holliston, Mass.). Following compound dispense, protein and dye solutions were added to achieve the final assay volume of 3 μL. The assay solutions were overlayed with 1 μL of silicone oil (Fluka, type DC 200: 85411) to prevent evaporation.
(§3) Assay plates were robotically loaded onto a thermostatically controlled PCR-type thermal block and then heated from 40 to 90° C. at a ramp-rate of 1° C./min for all experiments. Fluorescence was measured by continuous illumination with UV light (Hamamatsu LC6) supplied via fiber optics and filtered through a band-pass filter (380-400 nm; >60D cutoff). Fluorescence emission of the entire 384-well plate was detected by measuring light intensity using a CCD camera (Sensys, Roper Scientific) filtered to detect 500±25 nm, resulting in simultaneous and independent readings of all 384 wells. A single image with 20-sec exposure time was collected at each temperature, and the sum of the pixel intensity in a given area of the assay plate was recorded vs temperature and fit to standard equations to yield the Tm (J Biomol Screen 2001, 6, 429-40).
(§4) Thermodynamic parameters necessary for fitting compound binding for each proMMP were estimated by differential scanning calorimetry (DSC) and from ThermoFluor® data. The heat capacity of unfolding for each protein was estimated from the molecular weight and from ThermoFluor® dosing data.
ThermoFluor® with proMMP9(20-445;ΔFnII (SEQ ID NO:6)
The protein sample preparations included a desalting buffer exchange step via a PD-10 gravity column (GE Healthcare). The desalting buffer exchange was performed prior to diluting the protein to the final assay concentration of 2.8 μM proMMP9(20-445;ΔFnII) (SEQ ID NO:6). The concentration of proMMP9(20-445;ΔFnII) (SEQ ID NO:6) was determined spectrophotometrically based on a calculated extinction coefficient of ε280=39880 M^−1 cm^−1, a calculated molecular weight of 28.2 kDa, and calculated pI of 5.5. ThermoFluor® reference conditions were define as follows: 80 μg/mL (2.8 μM) proMMP9(20-445;ΔFnII) (SEQ ID NO:6), 50 μM 1,8-ANS, pH 7.0 Buffer (50 mM HEPES pH 7.0, 100 mM NaCl, 0.001% Tween-20, 2.5 mM MgCl2, 300 μM CaCl2). The thermodynamic parameters for proMMP9(20-445;ΔFnII) (SEQ ID NO:6) are as follows: Tm (° C.)=72 (+/−0.1), ΔUH(Tm) (cal mol^−1)=160000(+/−5000), ΔUS(Tm) (cal mol^−1 K^−1)=434, ΔUCp (cal mol^−1 K^−1)=2400.

[2] = target: T2, proMMP13(1-268) (SEQ ID NO:7) (Homo sapiens, UniProt P45452); assay: ThermoFluor binding assay with proMMP13(1-268)
T2 construct: 6×-histidine tag (C); made in house; host or cells: HEK293 (transient, secreted)
Method: as §1, §2, §3, §4
ThermoFluor® with proMMP13(1-268) (SEQ ID NO: 7)
The proMMP13(1-268) (SEQ ID NO:7) protein sample preparations included a desalting buffer exchange step via a PD-10 gravity column (GE Healthcare). The desalting buffer exchange was performed prior to diluting the protein to the final assay concentration of 3.5 μM. The concentration of proMMP13(1-268) (SEQ ID NO:7) was estimated spectrophotometrically based on a calculated extinction coefficient of ε280=37000 M^−1 cm^−1, a calculated molecular weight of 30.8 kDa, and calculated pI of 5.33. ThermoFluor® reference conditions were defined as follows: 100 μg/mL proMMP13(1-268) (SEQ ID NO:7), 25 μM 1,8-ANS, pH 7.0 Buffer (50 mM HEPES pH 7.0, 100 mM NaCl, 0.001% Tween-20, 2.5 mM MgCl2, 300 μM CaCl2). The thermodynamic parameters for proMMP13(1-268) (SEQ ID NO:7) are as follows: Tm (° C.)=67 (+/−0.1), ΔUH(Tm) (cal mol^−1)=107000(+/−5000), ΔUS(Tm) (cal mol^−1 K^−1)=318, ΔUCp (cal mol^−1 K^−1)=2600.

[3] = target: T3, full-length proMMP9(1-707) (SEQ ID NO:1), activation by catalytic MMP3 (Homo sapiens, UniProt P14780, R574P); assay: proMMP9/MMP3 P126 Activation Assay; type: biochemical
T3 construct: made in house; host or cells: HEK293 (transient, secreted)
T3 sequence (P14780 20-707 R574P): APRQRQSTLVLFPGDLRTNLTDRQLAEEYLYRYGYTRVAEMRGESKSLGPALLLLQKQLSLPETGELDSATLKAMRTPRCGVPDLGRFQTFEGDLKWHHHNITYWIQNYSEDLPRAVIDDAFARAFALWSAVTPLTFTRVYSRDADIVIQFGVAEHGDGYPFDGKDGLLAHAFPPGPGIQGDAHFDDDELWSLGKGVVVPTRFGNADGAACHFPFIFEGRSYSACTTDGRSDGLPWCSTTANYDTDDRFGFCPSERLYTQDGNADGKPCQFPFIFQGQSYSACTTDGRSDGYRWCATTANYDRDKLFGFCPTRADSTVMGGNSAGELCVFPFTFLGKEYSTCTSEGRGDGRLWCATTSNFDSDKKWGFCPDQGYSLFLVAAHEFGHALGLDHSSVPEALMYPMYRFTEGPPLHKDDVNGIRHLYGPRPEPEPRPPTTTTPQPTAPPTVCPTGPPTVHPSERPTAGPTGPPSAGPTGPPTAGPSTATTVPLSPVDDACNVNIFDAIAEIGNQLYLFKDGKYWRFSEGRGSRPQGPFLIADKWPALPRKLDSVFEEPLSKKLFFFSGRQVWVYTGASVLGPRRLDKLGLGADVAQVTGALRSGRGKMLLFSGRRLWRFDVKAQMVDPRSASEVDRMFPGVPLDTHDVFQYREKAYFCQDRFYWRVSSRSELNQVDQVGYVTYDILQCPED
Method: proMMP9/MMP3 P126 Activation Assay
The reaction volume was 50 μL. […] Reactivity of residual MMP3 towards P-126 substrate was minimal under these conditions.

[4] = target: T4, proMMP9(67-444;ΔFnII) (SEQ ID NO:5) (Homo sapiens, UniProt P14780, DEL216-390); assay: ThermoFluor binding assay with proMMP9(67-444;ΔFnII)
T4 construct: start methionine (N); made in house; host or cells: E. coli BL21(DE3) RIL
T4 sequence (P14780 with tags, fused parts or gaps DEL216-390): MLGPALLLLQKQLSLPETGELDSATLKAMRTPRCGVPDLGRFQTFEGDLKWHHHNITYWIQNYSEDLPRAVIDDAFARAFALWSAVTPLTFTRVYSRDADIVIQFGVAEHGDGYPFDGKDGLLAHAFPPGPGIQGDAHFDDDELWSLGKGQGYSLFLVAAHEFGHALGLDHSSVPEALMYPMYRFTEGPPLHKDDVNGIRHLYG
Method: as §1, §2, §3, §4
ThermoFluor® with proMMP9(67-444;ΔFnII (SEQ ID NO:5)
The protein sample preparations had to include a desalting buffer exchange step via a PD-10 gravity column (GE Healthcare). The desalting buffer exchange was performed prior to diluting the protein to the final assay concentration of 3.5 μM proMMP9(67-444;ΔFnII) (SEQ ID NO:5). The concentration of proMMP9(67-444;ΔFnII) (SEQ ID NO:5) was determined spectrophotometrically based on a calculated extinction coefficient of ε280=33900 M^−1 cm^−1, a calculated molecular weight of 22.6 kDa, and calculated pI of 5.20. ThermoFluor® reference conditions were defined as follows: 80 μg/mL (3.5 μM) proMMP9(67-444;ΔFnII) (SEQ ID NO:5), 50 μM 1,8-ANS, pH 7.0 Buffer (50 mM HEPES pH 7.0, 100 mM NaCl, 0.001% Tween-20, 2.5 mM MgCl2, 300 μM CaCl2). The thermodynamic parameters for proMMP9(67-444;ΔFnII) (SEQ ID NO:5) are as follows: Tm (° C.)=63 (+/−0.1), ΔUH(Tm) (cal mol^−1)=105000(+/−5000), ΔUS(Tm) (cal mol^−1 K^−1)=450, ΔuCp (cal mol^−1 K^−1)=2000.

[5] = target: T5, proMMP13(1-268) (SEQ ID NO:7), activation by plasmin (Homo sapiens, UniProt P45452); assay: ProMMP13/Plasmin P126 Activation Assay; type: biochemical
T5 construct: 6×-histidine tag (C); made in house; host or cells: HEK293 (transient, secreted)
Method: ProMMP13/Plasmin P126 Activation Assay
On the day of assay, proMMP13(1-268) (SEQ ID NO:7) purified from HEK293 cells and plasmin were diluted to 160 nM and 320 nM, respectively, in assay buffer. The reaction volume was 50 μL. […] The plate was sealed and incubated for 40 min at 37° C. […] Plasmin was not reactive towards P-126 substrate under these conditions.

Q: Cc1c(-c2csc(Nc3cc(C(N)=O)ccc3OC(C)C)n2)sc2ccccc12 [Example 3, 4-Isopropoxy-3-[4-(3-methyl-benzo[b]thiophen-2-yl)-thiazol-2-ylamino]-benzamide•HBr] was tested. Which Kd [1] did it give?
A: 1200 nM

Q: And the Kd [2]?
A: 1900 nM

Q: And the IC50 [3]?
A: 2500 nM

Q: And the Kd [4]?
A: 750 nM

Q: For CC(C)Oc1ccc(C(N)=O)cc1Nc1nc(-c2nc3ccccc3n2C)cs1 [Example 4, 4-Isopropoxy-3-[4-(1-methyl-1H-benzoimidazol-2-yl)-thiazol-2-ylamino]-benzamide•TFA], which Kd [1] is on record?
A: 16000 nM

Q: What about the Kd [2] of the same compound?
A: 13000 nM

Q: And the IC50 [3]?
A: ~7000 nM

Q: And the Kd [4]?
A: 9800 nM

Q: What does the source list for CCOc1ccc(S(N)(=O)=O)cc1Nc1nc(-n2c(C)nc3ccccc32)cs1 [Example 5, 4-Ethoxy-3-[4-(2-methyl-benzoimidazol-1-yl)-thiazol-2-ylamino]-benzenesulfonamide]?
A: Kd [1]: 9700 nM; Kd [2]: 4800 nM; IC50 [3]: 13800 nM; Kd [4]: 16000 nM

Q: What does the source list for Cc1nc2ccc(Cl)cn2c1-c1csc(Nc2cc(C(N)=O)ccc2OC(C)C)n1 [Example 6, 3-[4-(6-Chloro-2-methyl-imidazo[1,2-a]pyridin-3-yl)-thiazol-2-ylamino]-4-isopropoxy-benzamide]?
A: Kd [1]: 490 nM; Kd [2]: 1100 nM; IC50 [3]: 640 nM; Kd [4]: 17000 nM

Q: Cc1ccn2c(-c3csc(Nc4cc(C(N)=O)ccc4OC(C)C)n3)c(C)nc2c1 [Example 7, 3-[4-(2,7-Dimethyl-imidazo[1,2-a]pyridin-3-yl)-thiazol-2-ylamino]-4-isopropoxy-benzamide] was tested. Which Kd [1] did it give?
A: 1500 nM

Q: What about the Kd [2] of the same compound?
A: 1200 nM

Q: What about the IC50 [3] of the same compound?
A: 1800 nM

Q: What about the Kd [4] of the same compound?
A: 9600 nM

Q: CC(C)Oc1ccc(C(N)=O)cc1Nc1nc(-c2ccc3c(c2)ncn3C)cs1 [Example 8, 4-Isopropoxy-3-[4-(1-methyl-1H-benzoimidazol-5-yl)-thiazol-2-ylamino]-benzamide] was tested. Which IC50 [5] did it give?
A: 900 nM

Q: And the Kd [1]?
A: 30 nM

Q: And the IC50 [3]?
A: 150 nM

Q: What about the Kd [4] of the same compound?
A: 330 nM

Q: Which results are given for Cc1nc2ccc(-c3csc(Nc4cc(S(N)(=O)=O)ccc4OC(C)C)n3)cc2n1C [Example 22, 3-[4-(2,3-Dimethyl-3H-benzoimidazol-5-yl)-thiazol-2-ylamino]-4-isopropoxy-benzenesulfonamide•TFA]?
A: Kd [1]: 170 nM; IC50 [3]: 240 nM; Kd [4]: 480 nM

Q: What does the source list for Cc1nc2cc(-c3csc(Nc4cc(S(N)(=O)=O)ccc4OC(C)C)n3)ccc2n1C [Example 23, 3-[4-(1,2-Dimethyl-1H-benzoimidazol-5-yl)-thiazol-2-ylamino]-4-isopropoxy-benzenesulfonamide•TFA]?
A: Kd [1]: 360 nM; IC50 [3]: 180 nM; Kd [4]: 1100 nM

Q: Which results are given for CC(C)Oc1ccc(S(N)(=O)=O)cc1Nc1nc(-c2ccc3occc3c2)cs1 [Example 24, 3-(4-Benzofuran-5-yl-thiazol-2-ylamino)-4-isopropoxy-benzenesulfonamide•TFA]?
A: Kd [1]: 240 nM; IC50 [3]: 3400 nM; Kd [4]: 670 nM

Q: CCn1cnc2cc(-c3csc(Nc4cc(S(N)(=O)=O)ccc4OC(C)C)n3)ccc21 [Example 25, 3-[4-(1-Ethyl-1H-benzoimidazol-5-yl)-thiazol-2-ylamino]-4-isopropoxy-benzenesulfonamide•TFA] was tested. Which Kd [1] did it give?
A: 780 nM

Q: What about the IC50 [3] of the same compound?
A: 240 nM

Q: What about the Kd [4] of the same compound?
A: 1600 nM

Q: For CCCn1cnc2cc(-c3csc(Nc4cc(S(N)(=O)=O)ccc4OC(C)C)n3)ccc21 [Example 26], which Kd [1] is on record?
A: 210 nM

Q: What about the IC50 [3] of the same compound?
A: 470 nM

Q: What about the Kd [4] of the same compound?
A: 1000 nM

Q: Which results are given for CCn1cnc2ccc(-c3csc(Nc4cc(S(N)(=O)=O)ccc4OC(C)C)n3)cc21 [Example 27, 3-[4-(3-Ethyl-3H-benzoimidazol-5-yl)-thiazol-2-ylamino]-4-isopropoxy-benzenesulfonamide•TFA]?
A: Kd [1]: 120 nM; IC50 [3]: 250 nM; Kd [4]: 470 nM

Q: For CC(C)Oc1ccc(S(N)(=O)=O)cc1Nc1nc(-c2ccc3c(c2)nc(CO)n3C)cs1 [Example 29], which Kd [1] is on record?
A: 100 nM

Q: What about the IC50 [3] of the same compound?
A: 150 nM

Q: What about the Kd [4] of the same compound?
A: 660 nM

Reference: patent US20120129872A1, “FUSED HETEROARYL INHIBITORS OF PRO-MATRIX METALLOPROTEINASE ACTIVATION” (priority 2010, published 2012)
